Experimental findings from patent US6362172B1, “Water soluble prodrugs of azole compounds” (Bristol-Myers Squibb Company, priority 2000, dated 2002) are described below.

Converted amounts (≈) assume the structure as drawn.

One data set is described as follows: aqueous solubility. As to conditions: for solubility and stability of the crystalline salt: single polymorph crystalline solids; for solubility: aqueous.
Data set [1] is described as follows: conversion of prodrug to parent drug in vivo.

Turning to `C[C@@H](c1nc(-c2ccc(C#N)cc2)cs1)[C@@](Cn1cncn1)(OCOP(=O)(O)O)c1ccc(F)cc1F.NCCCC[C@H](N)C(=O)O.NCCCC[C@H](N)C(=O)O` [Example 3, Bis lysine salt of (2R,3R)-3-[4-(4-cyanophenyl)thiazol-2-yl]-2-(2,4-difluorophenyl)-1-(1H-1,2,4-triazol-1-yl)-2-[(dihydrogenphosphonoxy)methoxy]butane], in “aqueous solubility”, the “solubility and stability of the crystalline salt” value is “good solubility and stability”.
As for `CC(C)(C)N.C[C@@H](c1nc(-c2ccc(C#N)cc2)cs1)[C@@](Cn1cncn1)(OCOP(=O)(O)O)c1ccc(F)cc1F` [Example 4, Tert-butyl amine salt of (2R,3R)-3-[4-(4-cyanophenyl)thiazol-2-yl]-2-(2,4-difluorophenyl)-1-(1H-1,2,4-triazol-1-yl)-2-[(dihydrogenphosphonoxy)methoxy]butane], in the data set “aqueous solubility”, the “solubility and stability of the crystalline salt” value is “good solubility and stability”.
In general, solubility refers to the concentration that dissolves in the medium under given conditions. Read a low solubility as little dissolved substance. As to `C[C@@H](c1nc(-c2ccc(C#N)cc2)cs1)C(Cn1cncn1)(OCOP(=O)(O)O)c1ccc(F)cc1F` (stereo partly drawn) [Example 2, (2R,3R)-3-[4-(4-cyanophenyl)thiazol-2-yl]-2-(2,4-difluorophenyl)-1-(1H-1,2,4,- triazol-1-yl)-2-[(dihydrogenphosphonoxy)methoxy]butane], the solubility is 5 to 6 mg/mL (≈ 9.13 to 11 mM) in the data set “aqueous solubility” (pH 4.3, aqueous buffer) and greater than 10 mg/mL in “aqueous solubility” (pH 7, aqueous buffer). Besides, the stability in solution result in the data set “stability in solution” is “stable in solution”. Besides, in data set [1], the “conversion to parent drug in vivo” value is recorded as “readily converted to parent drug in vivo”.
